From PubChem BioAssay AID1845210 (Molecular Pharmacology Branch, DTP, NCI, 2023)
“And” between values parts separate entries of the source, which are not always exact repeats. Identical values can stand only once.

Tested on: NCI-H226 complex tumor spheroids, viability
Assay: Anticancer human tumor NCI-H226 cell line growth inhibition;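 also: spheroids exposed to compound for 7 days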;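 as to viability, T/C: 100% = DMSO vehicle control viability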
Settings: for viability, T/C: stronger effect = lower value
In short: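 Single agents and combinations were tested on spheroids built from tumor cells plus HUVEC and hMSC, at half-log dilutions starting at or near clinical Cmax, else 10 microM; final DMSO 0.25% (v/v).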

[1] = curve of first compound, second compound 30 pM
[2] = curve of first compound, second compound 94.9 pM
[3] = curve of first compound, second compound 0.0003 µM
[4] = curve of first compound, second compound 0.000949 µM
[5] = curve of first compound, second compound 0.003 µM

SMILES: Cc1sc2c(c1C)C(c1ccc(Cl)cc1)=NC(CC(=O)Nc1ccc(O)cc1)c1nnc(C)n1-2 (stereo not given) + Cn1nnc2c(C(N)=O)ncn2c1=O
- IC50 (curve of first compound, second compound 1 µM): 959 nM
- IC50 (curve of first compound, second compound 3.16 µM): 808 nM
- IC50 (curve of first compound, second compound 10 µM): 1000 nM
- IC50 (curve of first compound, second compound 31.6 µM): 1270 nM
- IC50 (curve of first compound, second compound 100 µM): 1570 nM
- viability, T/C (second compound 1 µM, first compound 0.00949 µM): 83.4%
- viability, T/C (second compound 1 µM, first compound 0.03 µM): 85%
- viability, T/C (second compound 1 µM, first compound 0.0949 µM): 74.9%
- viability, T/C (second compound 1 µM, first compound 0.3 µM): 68.4%
- viability, T/C (second compound 1 µM, first compound 0.949 µM): 48.8%
- viability, T/C (second compound 1 µM, first compound 3 µM): 40.3%
- viability, T/C (second compound 3.16 µM, first compound 0.00949 µM): 79.2%
- viability, T/C (second compound 3.16 µM, first compound 0.03 µM): 78.7%
- viability, T/C (second compound 3.16 µM, first compound 0.0949 µM): 81.1%
- viability, T/C (second compound 3.16 µM, first compound 0.3 µM): 63.2%
- viability, T/C (second compound 3.16 µM, first compound 0.949 µM): 49.4%
- viability, T/C (second compound 3.16 µM, first compound 3 µM): 39.6%
- viability, T/C (second compound 10 µM, first compound 0.00949 µM): 90.6%
- viability, T/C (second compound 10 µM, first compound 0.03 µM): 78.3%
- viability, T/C (second compound 10 µM, first compound 0.0949 µM): 76.8%
- viability, T/C (second compound 10 µM, first compound 0.3 µM): 66.4%
- viability, T/C (second compound 10 µM, first compound 0.949 µM): 46.8%
- viability, T/C (second compound 10 µM, first compound 3 µM): 42.5%
- viability, T/C (second compound 31.6 µM, first compound 0.00949 µM): 87.1%
- viability, T/C (second compound 31.6 µM, first compound 0.03 µM): 80.2%
- viability, T/C (second compound 31.6 µM, first compound 0.0949 µM): 70.2%
- viability, T/C (second compound 31.6 µM, first compound 0.3 µM): 71%
- viability, T/C (second compound 31.6 µM, first compound 0.949 µM): 52%
- viability, T/C (second compound 31.6 µM, first compound 3 µM): 38.5%
- viability, T/C (second compound 100 µM, first compound 0.00949 µM): 92.7%
- viability, T/C (second compound 100 µM, first compound 0.03 µM): 80.2%
- viability, T/C (second compound 100 µM, first compound 0.0949 µM): 84.8%
- viability, T/C (second compound 100 µM, first compound 0.3 µM): 67.8%
- viability, T/C (second compound 100 µM, first compound 0.949 µM): 55.4%
- viability, T/C (second compound 100 µM, first compound 3 µM): 42.5%

SMILES: [2H]c1nc(C)nc([2H])c1-c1cc(NC[C@@H](C)c2cccc3c(C(=O)NC)ccnc23)ncn1 + COc1cc2c(cc1O)CCNC21CSC2c3c(OC(C)=O)c(C)c4c(c3C(COC1=O)N1C(O)C3Cc5cc(C)c(OC)c(O)c5C(C21)N3C)OCO4
- IC50 [1]: > 10000 nM
- IC50 [2]: > 10000 nM
- IC50 [3]: > 10000 nM
- IC50 [4]: > 10000 nM
- IC50 [5]: < 31.6 nM
- viability, T/C (second compound 30 pM, first compound 0.0316 µM): 99.6%
- viability, T/C (second compound 30 pM, first compound 0.1 µM): 101%
- viability, T/C (second compound 30 pM, first compound 0.316 µM): 93%
- viability, T/C (second compound 30 pM, first compound 1 µM): 106%
- viability, T/C (second compound 30 pM, first compound 3.16 µM): 111%
- viability, T/C (second compound 30 pM, first compound 10 µM): 101%
- viability, T/C (second compound 94.9 pM, first compound 0.0316 µM): 99.1%
- viability, T/C (second compound 94.9 pM, first compound 0.1 µM): 101%
- viability, T/C (second compound 94.9 pM, first compound 0.316 µM): 100%
- viability, T/C (second compound 94.9 pM, first compound 1 µM): 101%
- viability, T/C (second compound 94.9 pM, first compound 3.16 µM): 103%
- viability, T/C (second compound 94.9 pM, first compound 10 µM): 103%
- viability, T/C (second compound 0.0003 µM, first compound 0.0316 µM): 105%
- viability, T/C (second compound 0.0003 µM, first compound 0.1 µM): 110%
- viability, T/C (second compound 0.0003 µM, first compound 0.316 µM): 115%
- viability, T/C (second compound 0.0003 µM, first compound 1 µM): 118%
- viability, T/C (second compound 0.0003 µM, first compound 3.16 µM): 98.7%
- viability, T/C (second compound 0.0003 µM, first compound 10 µM): 118%
- viability, T/C (second compound 0.000949 µM, first compound 0.0316 µM): 105%
- viability, T/C (second compound 0.000949 µM, first compound 0.1 µM): 114%
- viability, T/C (second compound 0.000949 µM, first compound 0.316 µM): 102%
- viability, T/C (second compound 0.000949 µM, first compound 1 µM): 112%
- viability, T/C (second compound 0.000949 µM, first compound 3.16 µM): 101%
- viability, T/C (second compound 0.000949 µM, first compound 10 µM): 105%
- viability, T/C (second compound 0.003 µM, first compound 0.0316 µM): 3.26%
- viability, T/C (second compound 0.003 µM, first compound 0.1 µM): 3.28%
- viability, T/C (second compound 0.003 µM, first compound 0.316 µM): 1.57%
- viability, T/C (second compound 0.003 µM, first compound 1 µM): 2.56%
- viability, T/C (second compound 0.003 µM, first compound 3.16 µM): 1.3%
- viability, T/C (second compound 0.003 µM, first compound 10 µM): 0.8%

SMILES: COc1cc2c(cc1O)CCNC21CSC2c3c(OC(C)=O)c(C)c4c(c3C(COC1=O)N1C(O)C3Cc5cc(C)c(OC)c(O)c5C(C21)N3C)OCO4 (stereo not given)
- viability, T/C (compound 30 pM): 104% [middle of 10 runs]
- viability, T/C (compound 0.003 µM): 1.23% [middle of 10 runs]
- IC50 (compound alone, run of 12/12/2019): 1.76 nM [middle of 10 runs]

SMILES: O=C(c1cc(Cc2n[nH]c(=O)c3ccccc23)ccc1F)N1CCN(C(=O)C2CC2)CC1 + COc1cc2c(cc1O)CCNC21CSC2c3c(OC(C)=O)c(C)c4c(c3C(COC1=O)N1C(O)C3Cc5cc(C)c(OC)c(O)c5C(C21)N3C)OCO4
- IC50 [1]: > 30000 nM
- IC50 [2]: > 30000 nM
- IC50 [3]: > 30000 nM
- IC50 [4]: > 30000 nM
- IC50 [5]: < 94.9 nM
- viability, T/C (second compound 30 pM, first compound 0.0949 µM): 94.5%
- viability, T/C (second compound 30 pM, first compound 0.3 µM): 109%
- viability, T/C (second compound 30 pM, first compound 0.949 µM): 109%
- viability, T/C (second compound 30 pM, first compound 3 µM): 108%
- viability, T/C (second compound 30 pM, first compound 9.49 µM): 99.4%
- viability, T/C (second compound 30 pM, first compound 30 µM): 82.5%
- viability, T/C (second compound 94.9 pM, first compound 0.0949 µM): 109%
- viability, T/C (second compound 94.9 pM, first compound 0.3 µM): 95%
- viability, T/C (second compound 94.9 pM, first compound 0.949 µM): 105%
- viability, T/C (second compound 94.9 pM, first compound 3 µM): 101%
- viability, T/C (second compound 94.9 pM, first compound 9.49 µM): 99.4%
- viability, T/C (second compound 94.9 pM, first compound 30 µM): 102%
- viability, T/C (second compound 0.0003 µM, first compound 0.0949 µM): 115%
- viability, T/C (second compound 0.0003 µM, first compound 0.3 µM): 129%
- viability, T/C (second compound 0.0003 µM, first compound 0.949 µM): 126%
- viability, T/C (second compound 0.0003 µM, first compound 3 µM): 118%
- viability, T/C (second compound 0.0003 µM, first compound 9.49 µM): 112%
- viability, T/C (second compound 0.0003 µM, first compound 30 µM): 93.2%
- viability, T/C (second compound 0.000949 µM, first compound 0.0949 µM): 126%
- viability, T/C (second compound 0.000949 µM, first compound 0.3 µM): 112%
- viability, T/C (second compound 0.000949 µM, first compound 0.949 µM): 100%
- viability, T/C (second compound 0.000949 µM, first compound 3 µM): 103%
- viability, T/C (second compound 0.000949 µM, first compound 9.49 µM): 87.4%
- viability, T/C (second compound 0.000949 µM, first compound 30 µM): 49.5%
- viability, T/C (second compound 0.003 µM, first compound 0.0949 µM): 2.43%
- viability, T/C (second compound 0.003 µM, first compound 0.3 µM): 16.1%
- viability, T/C (second compound 0.003 µM, first compound 0.949 µM): 1.13%
- viability, T/C (second compound 0.003 µM, first compound 3 µM): 2.74%
- viability, T/C (second compound 0.003 µM, first compound 9.49 µM): 0.95%
- viability, T/C (second compound 0.003 µM, first compound 30 µM): 0.69%

SMILES: Cc1cc(C)c(CNC(=O)c2cc(-c3ccc(CN4CCOCC4)cc3)cc3c2cnn3C2CCCC2)c(=O)[nH]1
- viability, T/C (compound 0.0316 µM): 100% (2×) and 94.5%
- viability, T/C (compound 0.1 µM): 102% and 112% and 103%
- viability, T/C (compound 0.316 µM): 99% and 107% and 112%
- viability, T/C (compound 1 µM): 83.4% and 110% and 97.2%
- viability, T/C (compound 3.16 µM): 91% and 115% and 98.1%
- viability, T/C (compound 10 µM): 91.5% and 118% and 100%
- IC50 (curve of compound): > 10000 nM
